Measured values from article PMC10535219, “Discovery and Potential Utility of a Novel Non-Invasive Ocular Delivery Platform” (Pharmaceutics, 2023).
Read-outs that look alike come from different tables or passages of the source.

Key:
[1] = Biodisposition of JV-DE1 and JV-MD2 delivered via NIODP (periorbital skin) in non-human primates; type: in vivo, cynomolgus monkeys; conditions: for Cmax / concentration at 24 h / concentration at 3 h / concentration at 6 h / concentration at 0.5 h: cynomolgus, cynomolgus monkey
Protocol: All experiments were performed at Medicilon. […] A pen brush was used to dose each formulation with three to four circular motions for even distribution. The doses of the test articles were selected based on their solubility/concentration with the maximum deliverable volume on the periorbital skin of the animals. The administered dose was calculated by the weight difference of the pen brush before and after administration. Animals were restrained from eye rubbing in restraint chairs for 2 h after dosing, with access to food and drink. A blood sample was collected from one of the study animals at pre-dosing. For every time point of 0.5, 3, 6, and 24 h post-dose, one animal was euthanized and the ocular tissues (upper eyelid, cornea, retina, and vitreous humor) of both eyes were collected. Plasma samples were collected before each euthanization.
For the convenience of tissue processing and sample extraction, only upper eyelids were collected to represent the entirety of the periorbital tissue. Ocular tissues were homogenized by adding a 9-fold volume of 50% methanol/H2O per gram of tissue. For the LC-MS/MS sample preparation, a 50 μL aliquot of plasma, aqueous humor, vitreous humor, or tissue homogenate was thoroughly mixed with a 250 μL extraction solution of CHCl3/EtOH (1:1); then, a 210 μL supernatant of the samples was transferred to a 96-well plate after centrifugation. The samples were evaporated in nitrogen gas (N2) until dried. Each sample was redissolved in 200 μL MeOH, of which 2 µL was injected for the LC-MS/MS analysis.
The LC system was the same as that described in Section 2. The MS analysis was performed using a Triple Quad 5500 with an ESI ion source, and the data acquisition and control system were Analyst 1.6.3 software from Applied Biosystems/MDS Sciex.
The LC/MS conditions for JV-DE1 are described in Supplementary Table S2. The LC conditions were as follows: ACQUITY UPLC ® BEH C18 1.7 μm, 2.1 mm × 50 mm; the mobile phase Column A, 0.1% formic acid in water; and Column B, 0.1% formic acid in acetonitrile. The flow rate was 0.6 ml/min, the column temperature was 50 °C, and the injection volume was 2 µL. The MS conditions were as follows: scan type, positive MRM; ion source, turbo spray; ionization model, ESI; nebulizer gas 1, 55 psi; gas 2, 55 psi; curtain gas, 40 psi; CAD, 10; ionspray voltage, 5500 V; and temperature, 550 °C.
The LC/MS conditions for JV-MD2 (DHA) are described in Supplementary Table S3. The LC conditions were as follows: ACQUITY UPLC® BEH C18 1.7 μm, 2.1 mm × 50 mm; the mobile phase Column A, […] NH4AC in H2O; and Column B, CAN. The flow rate was 0.5 mL/min, the column temperature was 40 °C, and the injection volume was 4 µL. The MS conditions were as follows: scan type, negative MRM; ion source, turbo spray; ionization model, ESI; nebulizer gas 1, 55 psi; gas 2, 55 psi; curtain gas, 40 psi; CAD, 9; ionspray voltage, 5500 V; and temperature, 550 °C.

[2] = target: human PAF receptor; parameters: method as in PMID 16331286; conditions: cited from earlier work
[3] = JV-DE1, monkey, NIODP OD, 159.3 μg/eye, 24 h
[4] = JV-DE1, monkey, NIODP OD, 160.6 μg/eye, 3 h
[5] = JV-DE1, monkey, NIODP OD, 162.2 μg/eye, 6 h
[6] = JV-DE1, monkey, NIODP OD, 179.1 μg/eye, 0.5 h

Question: What does the source list for CC(C)Oc1ccc(Cc2ccc(NC3=NCCN3)cc2)cc1 [JV-DE1, 4,5-dihydro-N-[4-[[4-(1-methylethoxy)phenyl]methyl]phenyl]-1H-imadazol-2-amine]?
Answer: Drug in plasma ([1]; JV-DE1 0.53% w/w, monkey, NIODP periorbital skin OD, 159.3 μg/eye, 24 h, LLOQ 0.0001 µg/mL): BLQ; % Administered Dose, Cornea [1, 3]: 0.0326%; % Administered Dose, Eyelid/periorbital skin [1, 3]: 0.7501%; % Administered Dose, Retina [1, 3]: 0.0002%; % Administered Dose, Vitreous humor [1, 3]: 0.0018%; % Administered Dose, Cornea [1, 4]: 0.3430%; % Administered Dose, Eyelid/periorbital skin [1, 4]: 1.4956%; % Administered Dose, Retina [1, 4]: 0.0004%; % Administered Dose, Vitreous humor [1, 4]: 0.0029%; % Administered Dose, Cornea [1, 5]: 0.5900%; % Administered Dose, Eyelid/periorbital skin [1, 5]: 0.3477%; % Administered Dose, Retina [1, 5]: 0.0005%; % Administered Dose, Vitreous humor [1, 5]: 0.0031%; % Administered Dose, Cornea [1, 6]: 0.1921%; % Administered Dose, Eyelid/periorbital skin [1, 6]: 0.6370%; % Administered Dose, Retina [1, 6]: 0.0004%; % Administered Dose, Vitreous humor [1, 6]: 0.0047%; plasma concentrations ([1]; JV-DE1, monkey, NIODP about 165.3 µg/eye OD, all time points, LLOQ 0.0001 µg/mL): ≤ 0.3 ng/mL; maximum delivery efficiency in the retina ([1]; JV-DE1, monkey, via NIODP): 0.0005%; decrease of maximum retinal delivery efficiency, NIODP vs eye drop ([1]; JV-DE1, monkeys (NIODP) vs rabbits (eye drop), not head-to-head): about 10 fold; Cmax ([1]; cornea, topical or ocular, 165.3 ug, JV-DE1, monkey, NIODP about 165.3 µg/eye OD, read-out: Cmax in cornea): 9300 ng/g; concentration at 24 h ([1]; cornea, topical, JV-DE1, monkey, NIODP OD, 159.3 μg/eye, 24 h, read-out: Drug in OD Tissues, Cornea): 1620 ng/g; concentration at 3 h ([1]; cornea, topical, JV-DE1, monkey, NIODP OD, 160.6 μg/eye, 3 h, read-out: Drug in OD Tissues, Cornea): 16700 ng/g; concentration at 6 h ([1]; cornea, topical, JV-DE1, monkey, NIODP OD, 162.2 μg/eye, 6 h, read-out: Drug in OD Tissues, Cornea): 23900 ng/g; concentration at 0.5 h ([1]; cornea, topical, JV-DE1, monkey, NIODP OD, 179.1 μg/eye, 0.5 h, read-out: Drug in OD Tissues, Cornea): 9300 ng/g; concentration at 24 h ([1]; eyelid/periorbital skin (upper eyelid), topical, JV-DE1, monkey, NIODP OD, 159.3 μg/eye, 24 h, read-out: Drug in OD Tissues, Eyelid/periorbital skin): 11600 ng/g; concentration at 3 h ([1]; eyelid/periorbital skin (upper eyelid), topical, JV-DE1, monkey, NIODP OD, 160.6 μg/eye, 3 h, read-out: Drug in OD Tissues, Eyelid/periorbital skin): 32500 ng/g; concentration at 6 h ([1]; eyelid/periorbital skin (upper eyelid), topical, JV-DE1, monkey, NIODP OD, 162.2 μg/eye, 6 h, read-out: Drug in OD Tissues, Eyelid/periorbital skin): 7950 ng/g; concentration at 0.5 h ([1]; eyelid/periorbital skin (upper eyelid), topical, JV-DE1, monkey, NIODP OD, 179.1 μg/eye, 0.5 h, read-out: Drug in OD Tissues, Eyelid/periorbital skin): 26500 ng/g; Cmax ([1]; eyelid/periorbital skin, topical or ocular, 165.3 ug, JV-DE1, monkey, NIODP about 165.3 µg/eye OD, read-out: Cmax in eyelid/periorbital skin): 26500 ng/g; concentration at 3 h ([1]; plasma, topical, JV-DE1 0.53% w/w, monkey, NIODP periorbital skin OD, 160.6 μg/eye, 3 h, read-out: Drug in plasma): 0.2 ng/mL; concentration at 6 h ([1]; plasma, topical, JV-DE1 0.53% w/w, monkey, NIODP periorbital skin OD, 162.2 μg/eye, 6 h, read-out: Drug in plasma): 0.3 ng/mL; concentration at 0.5 h ([1]; plasma, topical, JV-DE1 0.53% w/w, monkey, NIODP periorbital skin OD, 179.1 μg/eye, 0.5 h, read-out: Drug in plasma): 0.1 ng/mL; Cmax ([1]; retina, topical or ocular, 165.3 ug, JV-DE1, monkey, NIODP about 165.3 µg/eye OD, read-out: Cmax in retina): 45.5 ng/g; Cmax ([1]; retina, topical, 165.3 µg per eye, JV-DE1, monkey, NIODP, read-out: retinal Cmax): 147 nM; concentration at 24 h ([1]; retina, topical, JV-DE1, monkey, NIODP OD, 159.3 μg/eye, 24 h, read-out: Drug in OD Tissues, Retina): 5.5 ng/g; concentration at 3 h ([1]; retina, topical, JV-DE1, monkey, NIODP OD, 160.6 μg/eye, 3 h, read-out: Drug in OD Tissues, Retina): 27.9 ng/g; concentration at 6 h ([1]; retina, topical, JV-DE1, monkey, NIODP OD, 162.2 μg/eye, 6 h, read-out: Drug in OD Tissues, Retina): 45.5 ng/g; concentration at 0.5 h ([1]; retina, topical, JV-DE1, monkey, NIODP OD, 179.1 μg/eye, 0.5 h, read-out: Drug in OD Tissues, Retina): 39.6 ng/g; Cmax ([1]; vitreous humor, topical or ocular, 165.3 ug, JV-DE1, monkey, NIODP about 165.3 µg/eye OD, read-out: Cmax in vitreous humor): 19 ng/mL; concentration at 24 h ([1]; vitreous humor, topical, JV-DE1, monkey, NIODP OD, 159.3 μg/eye, 24 h, read-out: Drug in OD Tissues, Vitreous humor): 19 ng/mL; concentration at 3 h ([1]; vitreous humor, topical, JV-DE1, monkey, NIODP OD, 160.6 μg/eye, 3 h, read-out: Drug in OD Tissues, Vitreous humor): 7.9 ng/mL; concentration at 6 h ([1]; vitreous humor, topical, JV-DE1, monkey, NIODP OD, 162.2 μg/eye, 6 h, read-out: Drug in OD Tissues, Vitreous humor): 3.9 ng/mL; concentration at 0.5 h ([1]; vitreous humor, topical, JV-DE1, monkey, NIODP OD, 179.1 μg/eye, 0.5 h, read-out: Drug in OD Tissues, Vitreous humor): 15.2 ng/mL; pKi [2]: 7.9
